Assay results from patent publication US20040033982A1, “Viral inhibition by n-docosanol” (priority 2001, published 2004).
Read-outs that look alike come from different tables or passages of the source.

Key:
[1] = system: wild-type HSV-2; experiment: Plaque formation by wild-type HSV-2 in Vero cells; format: cell-based; settings: FIG. 7, Panel A
Procedure: (§1) FIG. 7 depicts data showing that n-docosanol inhibits acyclovir-resistant HSV-2. Vero cells were cultured in 35-mm wells (6×10^5 cells per well) in medium alone (=none) or in the presence of the indicated concentration of acyclovir, n-docosanol-Pluronic F-68 suspension or control suspension (Pluronic F-68 only). The cultures were inoculated 24 hours later with 150 PFU of either wild-type HSV-2 or an acyclovir-resistant laboratory isolate from the wild-type HSV-2 that was plaque purified and passaged in 20 μg/ml acyclovir 44 hours later, the plates were incubated, fixed, stained, and scored for numbers of plaques. The data presented are means of plaques scored from duplicate cultures. The percent inhibition observed in cultures treated with acyclovir or n-docosanol relative to untreated control cultures is denoted in parentheses.

[2] = system: acyclovir-resistant HSV-2; experiment: Plaque formation by acyclovir-resistant HSV-2 in Vero cells; format: cell-based; settings: FIG. 7, Panel B
Procedure: as §1

[3] = system: HSV-1; experiment: HSV-1 plaque assay in Vero cells, time of drug incubation and removal; format: cell-based; settings: 9 mM
Procedure: (A) Vero cells were plated and incubated with 9 mM n-docosanol, the corresponding control vehicle or no addition for 0, 3, 6, or 24 h prior to the addition of HSV-1. The viral plaque assay was continued and the number of p.f.u. determined. The data are expressed as % inhibition compared to wells receiving no treatment. (B) Vero cells were plated, n-docosanol or the corresponding control vehicle was added and cells were incubated at 37° C. in 10% humidified CO2. After 21, 24, 25, 26, and 27 h (6, 3, 2, 1, and 0 h before the addition of HSV-1), media containing drug was removed and the cells were washed with media. After a total of 27 h, HSV-1 was added to all wells. Two hours later virus-containing media was removed and replaced with fresh media lacking virus or drugs. The cultures were incubated and processed for determination of the number of HSV-induced plaques as in (A). […]
The cultures were incubated for an additional 42-44 h, washed once with fresh medium, stained and fixed (the staining/fixative consists of 1.25 mg/ml of carbol-fuchsin plus 2.5 mg/ml of methylene blue in methanol) and then scored for HSV-induced plaques using a dissecting microscope (10× magnification). […]

[4] = system: HSV-I; experiment: Binding of [3H]HSV-I to Vero cells; format: cell-based; settings: virus at 2 p.f.u./cell; n-docosanol 15 mM
Description: Attachment of HSV-I to specific cell surface receptors is unaffected in n-docosanol-treated cells. Previous studies have verified that attachment of HSV-1 to specific cell surface receptors is unaffected in n-docosanol-treated cells. […] Heparin inhibited this interaction 96%.

[5] = system: HSV-2 (333); experiment: Entry of HSV-2 (333) into CHO-IEβ8 cells (beta-galactosidase, OD600); format: cell-based; settings: for inhibition at 30000 µM: Human alphaherpesvirus 2, 30 mM
Procedure: CHO-IEβ8 cells were seeded into 24-well plates. After cell attachment, heparin, n-docosanol-vehicle, vehicle alone, or no agent (control) was added. Five to six hours after infection, the cells were processed, X-gal was added, and the absorbance at 600 nm was determined.
Twenty-four hours before infection, cultured cells were seeded into 24-well (16-mm) plates at 2.5×10^6 cells/well in 0.5 ml cDMEM supplemented with 10% fetal bovine serum (FES). After cell attachment (4-6 h later) heparin, n-docosanol-surfactant, or surfactant alone was added to the cells in 0.5 ml DMEM/10% FES. The agents were dissolved in the medium at two times the desired final concentration. For infection, 0.7 ml of medium was removed from each well and 25 μl of virus suspension was added to the remaining 0.3 ml to give a virus dose of at least 20 p.f.u./cell The plates were rocked at 37° C. for 3 h and then put in a 37° C. CO2 incubator for another 2-3 h.
At 5-6 h after infection, the cells were fixed with PES containing 2% formaldehyde and 0.2% glutaraldehyde, washed, then permeabilized with 0.02% NP-40, 0.01% deoxycholate and 2 mM MgCl2. After washing again, 5-bromo-4-chloro-3indolyl-β-galactopyranoside (X-gal) was added for development of blue product. The substrate was removed and replaced with 50% glycerol. Plates were photographed. To quantify the amount of color in each well the glycerol was removed from all wells that were then washed 3× with distilled H2O. DMSO (0.6 ml) was added to solubilize the dye and, after transferring 100 μl of each sample well from the 24-well plate to a 96-well plate, the OD600 was recorded using a 96-well plate reader.
n-Docosanol inhibits HSV-2(333) infectivity of CHO-IEβ8 cells. To further narrow the point of inhibition of viral entry in n-docosanol-treated cells, the effects of the drug on entry of HSV-2 into CHO-IEβ8 cells selected by transfection of CHO cells with a plasmid carrying a Pur selectable marker and lacZ under control of the HSV-1 ICP4 promoter was investigated. In this cell line, β-gal expression is induced upon entry of HSV virion proteins into the cell, an event which occurs immediately upon viral entry into the cellular cytoplasm and which is not dependent on virion transport to the nucleus.

[6] = Toxic, mutagenic, teratogenic properties

## CCCCCCCCCCCCCCCCCCCCCCO [n-docosanol]
[1]
  inhibition of plaque formation: inhibit plaque formation by wild type HSV-2 equally
[2]
  inhibition of plaque formation: inhibited
[3]; 6-h interval between drug removal and HSV-I addition
  inhibition of plaque formation: no inhibition of HSV-I plaque formation was observed
[3]; Human alphaherpesvirus 1, Vero, added simultaneously with, or 3 h prior to virus addition, read-out: inhibition of plaque formation
  inhibition at 9000 µM: 28%
[4]
  inhibition of [3H]HSV-I binding: bound normal levels
[5]
  maximal observed inhibition in comparison to untreated cells: approximately 75%
  reduction in the expression of β-galactosidase: ≤ 80%
[5]; read-out: inhibition of color production compared to Tetronic 908-treated cells
  inhibition at 30000 µM: 55%
[5]; read-out: inhibition of color production compared to untreated cells
  inhibition at 30000 µM: 40%
[6]
  toxic, mutagenic, or teratogenic properties: lacks any toxic, mutagenic, or teratogenic properties
